Laboratory results as given in patent publication US6624185B2, “Diarylcycloalkyl derivatives, processes for their preparation and their use as pharmaceuticals” (Aventis Pharma Deutschland GmbH, priority 2001, dated 2003).

molecular target: T1, human PPARα (Homo sapiens, UniProt Q07869); test: PPARα reporter cell line assay (stably transfected HEK cells, luciferase readout, three-day test); type: cell-based; settings: agonist activity in stably transfected HEK PPARα reporter cell line, 24 h incubation, luciferase luminescence
T1 construct: expressed in transfected cells; host or cells: HEK (human embryo kidney) cells, stably transfected
T1 sequence (Q07869 1-468): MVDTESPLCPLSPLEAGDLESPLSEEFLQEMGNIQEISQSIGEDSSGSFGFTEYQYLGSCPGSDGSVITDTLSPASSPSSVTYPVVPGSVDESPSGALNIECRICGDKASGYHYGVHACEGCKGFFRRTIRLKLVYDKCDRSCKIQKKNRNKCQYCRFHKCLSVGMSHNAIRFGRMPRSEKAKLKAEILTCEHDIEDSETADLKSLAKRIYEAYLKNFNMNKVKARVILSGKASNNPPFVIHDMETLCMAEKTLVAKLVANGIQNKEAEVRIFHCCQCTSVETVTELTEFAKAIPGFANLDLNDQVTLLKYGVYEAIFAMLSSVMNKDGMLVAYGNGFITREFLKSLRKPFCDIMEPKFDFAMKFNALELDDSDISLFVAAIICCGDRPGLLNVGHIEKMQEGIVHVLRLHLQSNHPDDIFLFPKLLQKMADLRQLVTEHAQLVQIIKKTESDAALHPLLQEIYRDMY
Experimental: To analyze the effectiveness of substances which bind to human PPARα, activating it in agonistic manner, a stable transfected HEK cell line (HEK=human embryo kidney) designated here as “PPARα reporter cell line” is used.
The activity of PPARα agonists is determined in a three-day test, described below:
The PPARα reporter cell line is cultivated up to 80% confluence in DMEM medium (#41965-039, Life Technologies) with the following additives: 10% cs-FCS (fetal calf serum, #SH-30068.03, Hyclone), antibiotics (0.5 mg/ml of zeozin [#R250-01, Invitrogen], 0.5 mg/ml of G418 [#10131-019, Life Technologies], 1% penicillin streptomycin solution [#15140-031, Life Technologies]) and 2 mM of L-glutamine (#25030-032, Life Technologies). Cultivation is carried out in standard cell culture bottles (#33111, Becton Dickinson) in a cell culture incubator at 37° C. and 5% CO2. The 80% confluent cells are washed once with 30 ml of PBS (#141-090- 094, Life Technologies), treated with 2 ml of trypsin solution (#25300-054, Life Technologies) at 37° C. for 2 min, taken up in 5 ml of the medium described above and counted in a cell counter. After dilution to 500,000 cells/ml, in each case 100,000 cells are sown into each well of a 96-well microtiter plate having a clear plastic bottom (#3610, Corning Costar). The plates are incubated in a cell incubator at 37° C. and 5% CO2 for 24 h.
The PPARα agonists to be tested are dissolved in DMSO at a concentration of 10 mM. This stock solution is diluted in Phenol-Red-free DMEM medium (#21063-029, Life Technologies) to which 5% of cs-FCS (#SH-30068.03, Hyclone), 2 mM of L-glutamine (#25030-032, Life Technologies) and the antibiotics described above (zeozin, G418, penicillin and streptomycin) had been added.
Test substances are usually tested at 11 different concentrations (10 μM; 3.3 μM; 1 μM; 0.33 μM; 0,1 μM; 0.033 μM; 0.01 μM; 0.0033 μM; 0.001 μM; 0.00033 μM and 0.0001 μM). […] From each well, the medium of the PPARα reporter cell line sown on day 1 is completely removed by aspiration, and immediately, the test substances diluted in medium are added to the cells. Dilution and addition of the substances can be carried out using a robot (Beckman Biomek 2000). The end volume of the test substances diluted in medium is 100 μl per well of a 96-well plate. The DMSO concentration in the assay is always below 0.1% v/v to prevent cytotoxic effects of the solvent.
The test plates are incubated in an incubator at 37° C. and 5% CO2 for 24 h.
The PPARα receptor cells treated with the test substances are removed from the incubator and frozen at −20° C. for 1 h to improve cell lysis. After the plates have thawed (thawing at room temperature for at least 30 min), 50 μl of buffer 1 (Luc-Screen kit #LS1000, PE Biosystems Tropix) are pipetted into each well and the plates are then transferred into an apparatus for measuring luminescence, fitted with a pipetting unit (Luminoscan Ascent, LabSystems). The luciferase reaction in the measurement apparatus is started by pipetting 50 μl of buffer 2 (Luc-Screen kit #LS1000, PE Biosystems Tropix) into each well of the 96-well plate. Addition of buffer to the individual wells is carried out in defined and identical time intervals following the instructions of the manufacturer (LabSystems). All samples are measured exactly 16 min after addition of buffer 2. Measurement time is 10 sec per sample.
The crude data of the apparatus for measuring luminescence are exported into a Microsoft Excel file. Dose-activity curves and EC50 values are calculated using the program XL.Fit according to the instructions of the manufacturer (IDBS).

Row | EC50 [nM] | Molecule
1 | 0.57 | Cc1cccc(-c2nc(COC3CCCC(OCc4cccc(C)c4C(=O)O)C3)c(C)o2)c1 (centres unmarked) [XXXVIII, 2-{3-[2-(3-Methylphenyl)-5-methyloxazol-4-ylmethoxy]cyclohexyloxymethyl}-6-methylbenzoic Acid]
2 | 14 | Cc1cccc(CC[C@@H]2CCC[C@H](OCc3coc(-c4ccc(F)cc4)n3)C2)c1C(=O)O (racemic) [XXVIII, Rac-cis-2-(2-{3-[2-(4-Fluorophenyl)oxazol-4-ylmethoxy]cyclohexyl}ethyl)-6-methylbenzoic Acid]
3 | 0.97 | Cc1cccc(COC2CCCC(OCc3nc(-c4cccc(Br)c4)oc3C)C2)c1C(=O)O (centres unmarked) [XXXII]
4 | 0.62 | Cc1cccc(COC2CCCC(OCc3nc(-c4cccc(Cl)c4)oc3C)C2)c1C(=O)O (centres unmarked) [XXXVI, 2-{3-[2-(3-Chlorophenyl)-5-methyloxazol4-ylmethoxy]cyclohexyloxymethyl}-6-methylbenzoic Acid]
5 | 0.82 | COc1cccc(-c2nc(COC3CCCC(OCc4cccc(C)c4C(=O)O)C3)c(C)o2)c1 (centres unmarked) [XXXIV, 2-{3-[2-(3-Methoxyphenyl)-5-methyloxazol4-ylmethoxy]cyclohexyloxymethyl}-6-methylbenzoic Acid]

Further lines, the molecule ahead of its results:

Row | Molecule | EC50 [nM]
6 | Cc1cccc(CC[C@H]2CCC[C@H](OCc3coc(-c4ccc(F)cc4)n3)C2)c1C(=O)O (racemic) [XXIX, Rac-trans-2-(2-{3-[2-(4-Fluorophenyl)oxazol4-ylmethoxy]cyclohexyl}ethyl)-6-methylbenzoic Acid] | 32
7 | Cc1cccc(COC[C@H]2CCC[C@@H](OCc3coc(-c4ccc(F)cc4)n3)C2)c1C(=O)O (racemic) [XXV, Rac-cis-2-{3-[2-(4-Fluorophenyl)oxazol4-ylmethoxy]cyclohexylmethoxymethyl}-6-methylbenzoic Acid] | 13
8 | Cc1ccccc1-c1nc(COC2CCCC(OCc3cccc(C)c3C(=O)O)C2)c(C)o1 (centres unmarked) [XLI, 2-{3-[2-(2-Methylphenyl)-5-methyloxazol-4-ylmethoxy]cyclohexyloxymethyl}-6-methylbenzoic Acid] | 0.6
9 | Cc1cccc(COC2CCCC(OCc3nc(-c4cccc(C#N)c4)oc3C)C2)c1C(=O)O (centres unmarked) [XLIV, 2-{3-[2-(3-Cyanophenyl)-5-methyloxazol-4-ylmethoxy]cyclohexyloxymethyl}-6-methylbenzoic Acid] | 0.93
10 | COc1ccc(-c2nc(COC3CCCC(OCc4cccc(C)c4C(=O)O)C3)c(C)o2)cc1OC (centres unmarked) [XLIII, 2-{3-[2-(3,4-Dimethoxyphenyl)-5-methyloxazol-4-ylmethoxy]cyclohexyloxymethyl}-6-methylbenzoic Acid] | 0.58
11 | 2-{3-[2-(4-Fluorophenyl)oxazola4-ylmethoxy]cyclohexyloxy}-6-methylbenzoic Acid [Example I] | 1
